Reference: ChEMBL document CHEMBL1201862, “PubChem BioAssay data set” (2004)
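Exposure lasted 48 hours, with cells grown in 96-well plates and compounds tested at five concentrations. At the GI50, growth is halved.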 The source made the active and inactive calls. No stated cut-off is given here; in the data, active = GI50 up to about 1.1 µM and inactive = higher.

Assays:
Experiment in all cases: NCI tumour cell line growth inhibition, 48 h
ACHN = test system: ACHN
CCRF-CEM = test system: CCRF-CEM
COLO 205 = test system: COLO 205
DMS-114 = test system: DMS-114
DU-145 = test system: DU-145
HL-60 = test system: HL-60
HT-29 = test system: HT-29
LOX IMVI = test system: LOX IMVI
M14 = test system: M14
MDA-MB-435 = test system: MDA-MB-435
NCI-H226 = test system: NCI-H226
NCI-H460 = test system: NCI-H460
NCI/ADR-RES = test system: NCI/ADR-RES
RPMI-8226 = test system: RPMI-8226
RXF 393 = test system: RXF 393
SF-268 = test system: SF-268
SK-MEL-5 = test system: SK-MEL-5
SN12C = test system: SN12C
SNB-75 = test system: SNB-75
T47D = test system: T47D

SMILES: O=C(O)Cc1cccc2c(=O)cc(-c3ccccc3)oc12 [MITOFLAXONE]
- GI50 (ACHN): > 250 µM (inactive)
- GI50 (CCRF-CEM): 213 µM (inactive)
- GI50 (COLO 205): > 250 µM (inactive)
- GI50 (DMS-114): 227 µM (inactive)
- GI50 (DU-145): > 940 µM (inactive)
- GI50 (HL-60): > 250 µM (inactive)
- GI50 (HT-29): > 250 µM (inactive)
- GI50 (LOX IMVI): 243 µM (inactive)
- GI50 (M14): > 250 µM (inactive)
- GI50 (MDA-MB-435): > 250 µM (inactive)
- GI50 (NCI-H226): 237 µM (inactive)
- GI50 (NCI-H460): > 250 µM (inactive)
- GI50 (NCI/ADR-RES): 222 µM (inactive)
- GI50 (RPMI-8226): 244 µM (inactive)
- GI50 (RXF 393): 244 µM (inactive)
- GI50 (SF-268): > 250 µM (inactive)
- GI50 (SK-MEL-5): 230 µM (inactive)
- GI50 (SN12C): 238 µM (inactive)
- GI50 (SNB-75): 212 µM (inactive)
- GI50 (T47D): > 250 µM (inactive)

SMILES: Clc1ccc2ns[s+]c2c1
- GI50 (ACHN): 0.449 µM (active)
- GI50 (CCRF-CEM): 1.27 µM (inactive)
- GI50 (COLO 205): 1.79 µM (inactive)
- GI50 (DMS-114): 2.61 µM (inactive)
- GI50 (DU-145): 8.79 µM (inactive)
- GI50 (HL-60): 1.09 µM (active)
- GI50 (HT-29): 3.39 µM (inactive)
- GI50 (LOX IMVI): 1.29 µM (inactive)
- GI50 (M14): 0.222 µM (active)
- GI50 (MDA-MB-435): 0.334 µM (active)
- GI50 (NCI-H226): > 89.7 µM (inactive)
- GI50 (NCI-H460): 5.83 µM (inactive)
- GI50 (RPMI-8226): 1.81 µM (inactive)
- GI50 (RXF 393): > 100 µM (inactive)
- GI50 (SF-268): 11.3 µM (inactive)
- GI50 (SK-MEL-5): 15.5 µM (inactive)
- GI50 (SN12C): 19.4 µM (inactive)
- GI50 (SNB-75): > 79.3 µM (inactive)
- GI50 (T47D): 11.7 µM (inactive)

SMILES: Cc1cccc(C(C)(C)C)c1NC(=O)C(C#N)C1=C(Cl)C(=O)c2ccccc2C1=O (stereo not drawn)
- GI50 (ACHN): 14.5 µM (inactive)
- GI50 (CCRF-CEM): 0.843 µM (active)
- GI50 (COLO 205): 17.5 µM (inactive)
- GI50 (DMS-114): 16.6 µM (inactive)
- GI50 (DU-145): 22 µM (inactive)
- GI50 (HL-60): 2.03 µM (inactive)
- GI50 (HT-29): 20.8 µM (inactive)
- GI50 (LOX IMVI): 16.3 µM (inactive)
- GI50 (M14): 18 µM (inactive)
- GI50 (MDA-MB-435): 16.7 µM (inactive)
- GI50 (NCI-H226): 9.66 µM (inactive)
- GI50 (NCI-H460): 19.2 µM (inactive)
- GI50 (NCI/ADR-RES): 16.6 µM (inactive)
- GI50 (RPMI-8226): 8.83 µM (inactive)
- GI50 (RXF 393): 16.9 µM (inactive)
- GI50 (SF-268): 17.1 µM (inactive)
- GI50 (SK-MEL-5): 17 µM (inactive)
- GI50 (SN12C): 17.3 µM (inactive)
- GI50 (SNB-75): 13.7 µM (inactive)
- GI50 (T47D): 9.95 µM (inactive)

SMILES: CC1OC(OC2C[C@](O)(C(=O)CF)Cc3c(O)c4c(c(O)c32)C(=O)c2ccccc2C4=O)CC(N)C1O (stereo partly drawn)
- GI50 (ACHN): < 0.01 µM (active)
- GI50 (CCRF-CEM): < 0.01 µM (active)
- GI50 (COLO 205): 0.0296 µM (active)
- GI50 (DMS-114): < 0.0109 µM (active)
- GI50 (DU-145): < 0.01 µM (active)
- GI50 (HL-60): < 0.01 µM (active)
- GI50 (HT-29): < 0.0156 µM (active)
- GI50 (LOX IMVI): < 0.01 µM (active)
- GI50 (M14): 0.0263 µM (active)
- GI50 (MDA-MB-435): 0.0746 µM (active)
- GI50 (NCI-H226): < 0.01 µM (active)
- GI50 (NCI-H460): < 0.01 µM (active)
- GI50 (RPMI-8226): < 0.01 µM (active)
- GI50 (RXF 393): 0.0637 µM (active)
- GI50 (SF-268): 0.0255 µM (active)
- GI50 (SK-MEL-5): < 0.0113 µM (active)
- GI50 (SN12C): < 0.01 µM (active)
- GI50 (SNB-75): 0.0161 µM (active)
- GI50 (T47D): 0.0106 µM (active)

SMILES: C=CC/C=C/Cc1csc(C(C)(C)C(O)C/C=C/C(=C)CCNC(=O)OC)n1 (stereo not drawn)
- GI50 (ACHN): 49.7 µM (inactive)
- GI50 (CCRF-CEM): 34.9 µM (inactive)
- GI50 (COLO 205): 59.7 µM (inactive)
- GI50 (DMS-114): < 0.0132 µM (active)
- GI50 (DU-145): > 100 µM (inactive)
- GI50 (HL-60): 9.71 µM (inactive)
- GI50 (HT-29): 48.8 µM (inactive)
- GI50 (LOX IMVI): 44.6 µM (inactive)
- GI50 (M14): 43.5 µM (inactive)
- GI50 (MDA-MB-435): 49.7 µM (inactive)
- GI50 (NCI-H226): > 100 µM (inactive)
- GI50 (NCI-H460): 29.5 µM (inactive)
- GI50 (NCI/ADR-RES): 75.7 µM (inactive)
- GI50 (RPMI-8226): 30.7 µM (inactive)
- GI50 (RXF 393): > 63.4 µM (inactive)
- GI50 (SF-268): 80.4 µM (inactive)
- GI50 (SK-MEL-5): 1.17 µM (inactive)
- GI50 (SN12C): > 100 µM (inactive)
- GI50 (SNB-75): 43 µM (inactive)
- GI50 (T47D): > 100 µM (inactive)
